Experimental data from US20260265316A1, “IMMUNOTHERAPEUTIC METHODS, COMPOUNDS, AND COMPOSITIONS FOR TREATING OR PREVENTING CELIAC DISEASE” (DBV Technologies, priority 2023, published 2026).

B1: QLQPFPQPELPYPQPELPYPQPELPYPQPQPGPRRKKPQPEQPEQPFPEQPQGARRKKPQQPFPQPEQPFPWQPQGPKKPSGEGSFQPSQENPQ (peptide)
chain: QLQPFPQPELPYPQPELPYPQPELPYPQPQPGPRRKKPQPEQPEQPFPEQPQGARRKKPQQPFPQPEQPFPWQPQGPKKPSGEGSFQPSQENPQ

Key:
[1] = test system: circulating gluten-specific CD4+ T cells in whole blood of HLA-DQ2+ CeD patients; assay: Whole blood IL-2 cytokine release assay, HLA-DQ2+ CeD participants; format: cell-based, human; details: 24 hours; for IL-2 response (in words): HLA-DQ2+ donors, whole blood
Description: FIGS. 10A-10B are graphs depicting the evaluation of the ability of various molarities of three gliadin polypeptides (Cv6, Av6, and 4K), two peptide mixes containing either the four individual building blocks BB1, BB2a, BB3a and BB4a (BB1-4a) or two Nexvax2 peptides (Nex01/02), and six individual building blocks or peptides (BB1, BB2a, BB3a, BB4a, Nex01, and Nex02) to restimulate gluten-specific T cell collected from HLA-DQ2+ CeD patients using a whole blood IL-2 release assay. The whole blood cytokine release assay was performed in six HLA-DQ2+ participants with biopsy-confirmed celiac disease. Whole blood was stimulated with the three gliadin polypeptide constructs Cv6, Av6, and 4K at 10, 2.5, and 0.5 μM final molarities, as indicated. Alternatively, whole blood was stimulated with a mix of peptides containing either the four building blocks BB1, BB2a, BB3a, and BB4a (BB1-4a) or Nex01 and Nex 02 (Nex01/02) at 10, 2.5, and 0.5 μM final molarities. Building blocks (BB1, BB2a, BB3a, and BB4a), Nex01, and Nex02 were also tested as individual peptides, at a single concentration of 10 μM. After 24 hours of incubation, the concentration of IL-2 was quantified from plasma using an MSD IL-2 S-plex ELISA. Data are expressed in femtogram/mL of plasma (A), or as fold change from the negative control (PBS 1×) (B). Symbols represent individual participants (patient ID); bars represent median+interquartile range of individual values.
The overarching objective of this assay was to validate that the polypeptide constructs (Cv6, Av6, and 4K) can be recognized and processed by human APCs, and they can then promote the activation of gluten-specific effector/memory CD4^+ T cells in CeD patients. A Cytokine Release Assay (CRA) was used (previously described in the literature: Anderson et al., Clinical & Experimental Immunology, 2021 June; 204(3): 321-334; and in Hardy et al., Frontiers in Immunology, 2021, Vol. 12, Article 661662, the entire contents of each of which are incorporated by reference herein). This assay quantifies IL-2 produced by circulating gluten-specific CD4^+ T cells present in the blood of CeD patients upon in vitro stimulation with gluten-derived antigens. Due to the extremely high sensitivity of this CRA, no oral exposure to gluten was required prior to blood sampling.
Informed consent was obtained from all subjects prior to blood collection.
Unfractionated blood (225 μL per well of a 96-well plate) was then rapidly restimulated for 24 hours with each of three of the polypeptide constructs provided herein (SEQ ID NO:23 wherein X is C [Cv6, i.e., SEQ ID NO:49], SEQ ID NO:23 wherein X is A [Av6, i.e., SEQ ID NO:50], and SEQ ID NO:46 [4K]) and with each of four individual building blocks (SEQ ID NO:15 wherein Z is E [BB1], SEQ ID NO:16 wherein Z is E [BB2a], SEQ ID NO:20 wherein Z is E [BB3a], and SEQ ID NO:18 wherein Z is E [BB4a]). The concentrations of the polypeptide constructs ranged from 0.5 to 10 micromolar, and the concentration for each individual building block was 10 micromolar. […] These two peptides comprise an N-terminal pyroglutamate and a C-terminal amide. Nex01 and Nex02 were the two gliadin peptides used in the Nexvax2 immunotherapeutic vaccine that was intended to restore immune tolerance to gluten in HLA-DQ2.5+ CeD patients. A positive control consisted of blood cells stimulated with phytohemagglutinin (PHA) (10 μg/mL) which activates all T cells regardless of their antigen specificity (i.e., a polyclonal activator). Negative controls consisted of cells treated with buffer only (PBS 1×).
After incubation for 24 hours at 37° C. and 5% CO2, plasma was separated from whole blood by centrifugation. Plasma was collected from each well and replicates (n=6 replicates per test) pooled. All plasma samples were frozen at −80° C. until analysis. Single plasma aliquots (100 μL) were thawed and analyzed in duplicate using MSD IL-2 S-plex according to the manufacturer's instructions.

[2] = Solubility upon drying on PET-Ti backing film and storage for 1 or 3 months at room temperature or 5° C.; format: physicochemical
Experimental: Backing films were stored for 1 month at room temperature (A, B, C) or 5° C. (D, E, F), away from light and humidity.
Backing films were stored for 3 months at room temperature (A, B, C) or 5° C. (D, E, F), away from light and humidity.
In order to evaluate their solubility upon deposition on a patch backing film and a period of storage, the three polypeptide constructs and the four individual building blocks were each dried on a PET-Ti backing film as described above. Backing films were stored at room temperature or 5° C. for 1 or 3 months.

[3] = format: physicochemical; details: pure water, PBS 1×, artificial perspiration; room temperature and 32° C.; 24 hours
Description: Dimerization appeared to be faster in artificial perspiration and at higher concentration.

[4] = stored at 5° C. for 1 month, PBS 1×
[5] = stored at 5° C. for 1 month, artificial perspiration
[6] = stored at 5° C. for 1 month, water
[7] = stored at 5° C. for 3 months, PBS 1×
[8] = stored at 5° C. for 3 months, artificial perspiration
[9] = stored at 5° C. for 3 months, water
[10] = stored at room temperature for 1 month, PBS 1×
[11] = stored at room temperature for 1 month, artificial perspiration
[12] = stored at room temperature for 1 month, water
[13] = stored at room temperature for 3 months, PBS 1×
[14] = stored at room temperature for 3 months, artificial perspiration
[15] = stored at room temperature for 3 months, water

Molecule	IL-2 response (in words) [1]	decrease in median percentage of soluble material recovered from the patch backing film compared to 4K [2, 4] [%]	decrease in median percentage of soluble material recovered from the patch backing film compared to Av6 [2, 4] [%]	decrease in median percentage of soluble material recovered from the patch backing film compared to Cv6 [2, 4] [%]	decrease in median percentage of soluble material recovered from the patch backing film compared to 4K [2, 5] [%]	decrease in median percentage of soluble material recovered from the patch backing film compared to Av6 [2, 5] [%]	decrease in median percentage of soluble material recovered from the patch backing film compared to Cv6 [2, 5] [%]	decrease in median percentage of soluble material recovered from the patch backing film compared to 4K [2, 6] [%]	decrease in median percentage of soluble material recovered from the patch backing film compared to Av6 [2, 6] [%]	decrease in median percentage of soluble material recovered from the patch backing film compared to Cv6 [2, 6] [%]	decrease in median percentage of soluble material recovered from the patch backing film compared to 4K [2, 7] [%]	decrease in median percentage of soluble material recovered from the patch backing film compared to Av6 [2, 7] [%]	decrease in median percentage of soluble material recovered from the patch backing film compared to Cv6 [2, 7] [%]	decrease in median percentage of soluble material recovered from the patch backing film compared to 4K [2, 8] [%]	decrease in median percentage of soluble material recovered from the patch backing film compared to Av6 [2, 8] [%]	decrease in median percentage of soluble material recovered from the patch backing film compared to Cv6 [2, 8] [%]	decrease in median percentage of soluble material recovered from the patch backing film compared to 4K [2, 9] [%]	decrease in median percentage of soluble material recovered from the patch backing film compared to Av6 [2, 9] [%]	decrease in median percentage of soluble material recovered from the patch backing film compared to Cv6 [2, 9] [%]	decrease in median percentage of soluble material recovered from the patch backing film compared to 4K [2, 10] [%]	further results
H-PQPEQPEQPFPEQPQ-NH2 [BB2a]	no or low response	16	7	14	14	8	7	20	10	6	16	9	16	20	15	14	19	15	13	15	decrease in median percentage of soluble material recovered from the patch backing film compared to Av6 [2, 10]: 11%; decrease in median percentage of soluble material recovered from the patch backing film compared to Cv6 [2, 10]: 14%; decrease in median percentage of soluble material recovered from the patch backing film compared to 4K [2, 11]: 14%; decrease in median percentage of soluble material recovered from the patch backing film compared to Av6 [2, 11]: 1%; decrease in median percentage of soluble material recovered from the patch backing film compared to Cv6 [2, 11]: 14%; decrease in median percentage of soluble material recovered from the patch backing film compared to 4K [2, 12]: 18%; decrease in median percentage of soluble material recovered from the patch backing film compared to Av6 [2, 12]: 9%; decrease in median percentage of soluble material recovered from the patch backing film compared to Cv6 [2, 12]: 13%; decrease in median percentage of soluble material recovered from the patch backing film compared to 4K [2, 13]: 17%; decrease in median percentage of soluble material recovered from the patch backing film compared to Av6 [2, 13]: 17%; decrease in median percentage of soluble material recovered from the patch backing film compared to Cv6 [2, 13]: 15%; decrease in median percentage of soluble material recovered from the patch backing film compared to 4K [2, 14]: 16%; decrease in median percentage of soluble material recovered from the patch backing film compared to Av6 [2, 14]: 10%; decrease in median percentage of soluble material recovered from the patch backing film compared to Cv6 [2, 14]: 16%; decrease in median percentage of soluble material recovered from the patch backing film compared to 4K [2, 15]: 15%; decrease in median percentage of soluble material recovered from the patch backing film compared to Av6 [2, 15]: 10%; decrease in median percentage of soluble material recovered from the patch backing film compared to Cv6 [2, 15]: 4%
H-PSGEGSFQPSQENPQ-NH2 [BB4a]	no or low response	14	5	12	13	8	7	14	4	0	17	10	17	17	11	10	18	14	12	14	decrease in median percentage of soluble material recovered from the patch backing film compared to Av6 [2, 10]: 10%; decrease in median percentage of soluble material recovered from the patch backing film compared to Cv6 [2, 10]: 13%; decrease in median percentage of soluble material recovered from the patch backing film compared to 4K [2, 11]: 14%; decrease in median percentage of soluble material recovered from the patch backing film compared to Av6 [2, 11]: 1%; decrease in median percentage of soluble material recovered from the patch backing film compared to Cv6 [2, 11]: 14%; decrease in median percentage of soluble material recovered from the patch backing film compared to 4K [2, 12]: 15%; decrease in median percentage of soluble material recovered from the patch backing film compared to Av6 [2, 12]: 7%; decrease in median percentage of soluble material recovered from the patch backing film compared to Cv6 [2, 12]: 11%; decrease in median percentage of soluble material recovered from the patch backing film compared to 4K [2, 13]: 11%; decrease in median percentage of soluble material recovered from the patch backing film compared to Av6 [2, 13]: 11%; decrease in median percentage of soluble material recovered from the patch backing film compared to Cv6 [2, 13]: 9%; decrease in median percentage of soluble material recovered from the patch backing film compared to 4K [2, 14]: 12%; decrease in median percentage of soluble material recovered from the patch backing film compared to Av6 [2, 14]: 6%; decrease in median percentage of soluble material recovered from the patch backing film compared to Cv6 [2, 14]: 12%; decrease in median percentage of soluble material recovered from the patch backing film compared to 4K [2, 15]: 13%; decrease in median percentage of soluble material recovered from the patch backing film compared to Av6 [2, 15]: 9%; decrease in median percentage of soluble material recovered from the patch backing film compared to Cv6 [2, 15]: 2%
B1	–	–	–	–	–	–	–	–	–	–	–	–	–	–	–	–	–	–	–	–	precipitate in solution [3]: no precipitate was observed; mean IL-2 titer ([1]; HLA-DQ2+ participants, 10 μM): 6664 fg/mL
